Measured values taken from ChEMBL document CHEMBL4265944, “Novel amide derivatives of 1,3-dimethyl-2,6-dioxopurin-7-yl-alkylcarboxylic acids as multifunctional TRPA1 antagonists and PDE4/7 inhibitors: A new approach for the treatment of pain” (Eur J Med Chem, 2018).

Key:
[1] = tested on: Rattus norvegicus; assay: Anti-inflammatory activity in Wistar rat assessed as inhibition of carrageenan-induced paw edema at 100 mg/kg, ip measured at 1 hr post dose relative to control; assay type: functional
[2] = tested on: Mus musculus; assay: Antiinflammatory activity in formalin-induced nociception Swiss CD-1 mouse model assessed as time spent on licking or biting formalin injected right hind paw during neurogenic phase at 5 mg/kg, ip measured during phase 1 (reference value: 97 +/- 6.86 sec); assay type: functional
[3] = tested on: Rattus norvegicus; assay: Anti-inflammatory activity in Wistar rat assessed as inhibition of carrageenan-induced paw edema at 100 mg/kg, ip measured at 2 hrs post dose relative to control; assay type: functional
[4] = tested on: Mus musculus; assay: Antiinflammatory activity in formalin-induced nociception Swiss CD-1 mouse model assessed as time spent on licking or biting formalin injected right hind paw during neurogenic phase at 2.5 mg/kg, ip measured during phase 2 (reference value: 158.3 +/- 12.34 sec); assay type: functional
[5] = tested on: Rattus norvegicus; assay: Anti-inflammatory activity in Wistar rat assessed as inhibition of carrageenan-induced paw edema at 40 mg/kg, ip measured at 3 hrs post dose relative to control; assay type: functional
[6] = molecular target: Transient receptor potential cation channel subfamily A member 1 (Homo sapiens) (UniProt O75762); assay: Antagonist activity at human TRPA1 expressed in HEK293 cells assessed as decrease in flufenamic acid-evoked increase in intracellular calcium level at 10 uM measured for 180 secs with 1 sec interval by Fluo4-AM dye-based fluorescence assay relative to control; assay type: cell-based
[7] = tested on: Rattus norvegicus; assay: Anti-inflammatory activity in Wistar rat assessed as inhibition of carrageenan-induced paw edema at 40 mg/kg, ip measured at 2 hrs post dose relative to control; assay type: functional
[8] = molecular target: High affinity 3',5'-cyclic-AMP phosphodiesterase 7A (Homo sapiens, UniProt Q13946); assay: Inhibition of recombinant human PDE7A using cAMP as substrate after 10 mins by PDE-Glo Phosphodiesterase Assay
[9] = tested on: Rattus norvegicus; assay: Anti-inflammatory activity in Wistar rat assessed as inhibition of carrageenan-induced paw edema at 20 mg/kg, ip measured at 1 hr post dose relative to control; assay type: functional
[10] = molecular target: Transient receptor potential cation channel subfamily A member 1 (Homo sapiens) (UniProt O75762); assay: Antagonist activity at human TRPA1 expressed in HEK293 cells assessed as decrease in flufenamic acid-evoked increase in intracellular calcium level at 1 uM measured for 180 secs with 1 sec interval by Fluo4-AM dye-based fluorescence assay relative to control; assay type: cell-based
[11] = tested on: Mus musculus; assay: Antiinflammatory activity in formalin-induced nociception ip dosed Swiss CD-1 mouse model assessed as time spent on licking or biting formalin injected right hind paw […] measured during phase 2; assay type: functional; settings: Swiss CD-1, ip
[12] = tested on: Mus musculus; assay: Antiinflammatory activity in formalin-induced nociception Swiss CD-1 mouse model assessed as time spent on licking or biting formalin injected right hind paw during neurogenic phase at 10 mg/kg, ip measured during phase 2 (reference value: 158.3 +/- 12.34 sec); assay type: functional
[13] = tested on: Rattus norvegicus; assay: Anti-inflammatory activity in Wistar rat assessed as inhibition of carrageenan-induced paw edema at 40 mg/kg, ip measured at 1 hr post dose relative to control; assay type: functional
[14] = tested on: Mus musculus; assay: Antiinflammatory activity in formalin-induced nociception Swiss CD-1 mouse model assessed as time spent on licking or biting formalin injected right hind paw during neurogenic phase at 5 mg/kg, ip measured during phase 2 (reference value: 158.3 +/- 12.34 sec); assay type: functional
[15] = tested on: Mus musculus; assay: Antiinflammatory activity in formalin-induced nociception Swiss CD-1 mouse model assessed as time spent on licking or biting formalin injected right hind paw during neurogenic phase at 10 mg/kg, ip measured during phase 1 (reference value: 97 +/- 6.86 sec); assay type: functional
[16] = molecular target: Transient receptor potential cation channel subfamily A member 1 (Homo sapiens) (UniProt O75762); assay: Antagonist activity at human TRPA1 expressed in HEK293 cells assessed as decrease in flufenamic acid-evoked increase in intracellular calcium level at 100 uM measured for 180 secs with 1 sec interval by Fluo4-AM dye-based fluorescence assay relative to control; assay type: cell-based
[17] = molecular target: 3',5'-cyclic-AMP phosphodiesterase 4B (Homo sapiens, UniProt Q07343); assay: Inhibition of recombinant human PDE4B using cAMP as substrate after 10 mins by PDE-Glo Phosphodiesterase Assay
[18] = tested on: Rattus norvegicus; assay: Anti-inflammatory activity in Wistar rat assessed as inhibition of carrageenan-induced paw edema at 100 mg/kg, ip measured at 3 hrs post dose relative to control; assay type: functional
[19] = tested on: Rattus norvegicus; assay: Anti-inflammatory activity in Wistar rat assessed as inhibition of carrageenan-induced paw edema at 20 mg/kg, ip measured at 3 hrs post dose relative to control; assay type: functional
[20] = tested on: Rattus norvegicus; assay: Anti-inflammatory activity in Wistar rat assessed as inhibition of carrageenan-induced paw edema at 20 mg/kg, ip measured at 2 hrs post dose relative to control; assay type: functional
[21] = tested on: Mus musculus; assay: Antiinflammatory activity in formalin-induced nociception Swiss CD-1 mouse model assessed as time spent on licking or biting formalin injected right hind paw during neurogenic phase at 2.5 mg/kg, ip measured during phase 1 (reference value: 97 +/- 6.86 sec); assay type: functional

Chain of 3',5'-cyclic-AMP phosphodiesterase 4B (Q07343 whole entry): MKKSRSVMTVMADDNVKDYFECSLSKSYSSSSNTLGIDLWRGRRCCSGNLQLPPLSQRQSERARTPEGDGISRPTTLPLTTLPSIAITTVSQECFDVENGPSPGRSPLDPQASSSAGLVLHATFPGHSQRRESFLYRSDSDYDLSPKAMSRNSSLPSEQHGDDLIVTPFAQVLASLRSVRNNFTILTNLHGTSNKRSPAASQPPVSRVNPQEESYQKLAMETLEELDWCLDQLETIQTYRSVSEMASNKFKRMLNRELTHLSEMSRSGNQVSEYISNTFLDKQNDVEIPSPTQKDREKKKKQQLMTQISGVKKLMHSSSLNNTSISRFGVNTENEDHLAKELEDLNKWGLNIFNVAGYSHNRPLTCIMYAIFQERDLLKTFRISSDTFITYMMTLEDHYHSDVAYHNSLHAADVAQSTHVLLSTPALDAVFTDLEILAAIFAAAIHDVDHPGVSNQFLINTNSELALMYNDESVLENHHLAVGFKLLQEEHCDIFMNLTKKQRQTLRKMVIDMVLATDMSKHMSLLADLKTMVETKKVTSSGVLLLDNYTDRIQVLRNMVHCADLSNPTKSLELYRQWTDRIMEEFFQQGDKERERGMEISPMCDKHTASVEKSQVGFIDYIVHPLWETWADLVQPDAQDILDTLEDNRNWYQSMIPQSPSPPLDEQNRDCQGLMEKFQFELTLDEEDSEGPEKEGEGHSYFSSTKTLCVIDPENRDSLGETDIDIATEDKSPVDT
Chain of Transient receptor potential cation channel subfamily A member 1 (Homo sapiens) (O75762 whole entry): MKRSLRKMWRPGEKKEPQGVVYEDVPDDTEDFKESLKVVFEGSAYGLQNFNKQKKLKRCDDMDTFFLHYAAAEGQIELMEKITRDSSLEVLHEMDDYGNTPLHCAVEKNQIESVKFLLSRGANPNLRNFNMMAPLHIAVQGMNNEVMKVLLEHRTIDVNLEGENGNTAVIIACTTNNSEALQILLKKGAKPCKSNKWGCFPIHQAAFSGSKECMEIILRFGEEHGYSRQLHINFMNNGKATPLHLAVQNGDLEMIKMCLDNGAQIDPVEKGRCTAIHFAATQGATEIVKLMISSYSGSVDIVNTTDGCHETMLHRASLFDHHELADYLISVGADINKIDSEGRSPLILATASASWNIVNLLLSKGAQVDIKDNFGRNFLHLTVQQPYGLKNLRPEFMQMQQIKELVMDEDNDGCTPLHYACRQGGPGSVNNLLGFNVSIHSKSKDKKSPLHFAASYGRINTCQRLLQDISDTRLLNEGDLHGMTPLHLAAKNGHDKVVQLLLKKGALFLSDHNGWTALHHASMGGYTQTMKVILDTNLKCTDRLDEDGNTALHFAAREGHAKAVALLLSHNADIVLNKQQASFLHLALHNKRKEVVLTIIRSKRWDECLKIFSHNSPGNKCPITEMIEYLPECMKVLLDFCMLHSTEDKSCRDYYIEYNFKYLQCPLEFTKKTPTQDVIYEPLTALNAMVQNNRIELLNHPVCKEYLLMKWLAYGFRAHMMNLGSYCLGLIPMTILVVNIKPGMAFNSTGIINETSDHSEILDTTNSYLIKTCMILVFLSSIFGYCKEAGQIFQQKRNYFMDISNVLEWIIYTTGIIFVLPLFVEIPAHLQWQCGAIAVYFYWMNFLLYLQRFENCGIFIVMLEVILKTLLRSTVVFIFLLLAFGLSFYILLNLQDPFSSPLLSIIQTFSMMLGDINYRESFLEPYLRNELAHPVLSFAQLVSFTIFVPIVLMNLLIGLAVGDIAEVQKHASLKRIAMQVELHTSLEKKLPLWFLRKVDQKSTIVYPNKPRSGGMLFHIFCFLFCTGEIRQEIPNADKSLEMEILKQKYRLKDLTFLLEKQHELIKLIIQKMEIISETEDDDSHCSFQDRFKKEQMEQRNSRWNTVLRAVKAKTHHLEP
Chain of High affinity 3',5'-cyclic-AMP phosphodiesterase 7A (Q13946 whole entry): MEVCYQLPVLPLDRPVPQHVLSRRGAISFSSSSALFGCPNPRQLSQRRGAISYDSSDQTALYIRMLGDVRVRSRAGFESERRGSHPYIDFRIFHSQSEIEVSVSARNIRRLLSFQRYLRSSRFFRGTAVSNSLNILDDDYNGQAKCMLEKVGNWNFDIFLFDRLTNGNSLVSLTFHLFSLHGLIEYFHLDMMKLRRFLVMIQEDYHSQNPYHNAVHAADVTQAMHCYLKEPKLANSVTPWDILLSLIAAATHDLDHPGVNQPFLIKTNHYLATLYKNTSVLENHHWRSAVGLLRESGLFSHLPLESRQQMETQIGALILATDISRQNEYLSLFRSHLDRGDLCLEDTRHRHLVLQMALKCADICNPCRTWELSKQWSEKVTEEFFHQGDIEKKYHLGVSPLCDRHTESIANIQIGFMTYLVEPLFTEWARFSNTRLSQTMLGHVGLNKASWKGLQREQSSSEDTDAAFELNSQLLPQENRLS

Row | SMILES | inhibition [6] | IC50 [8] | inhibition [10] | inhibition [16] | IC50 [17] | further results
1 | CC(C)c1ccc(NC(=O)Cn2cnc3c2c(=O)n(C)c(=O)n3C)cc1 | 13% | > 200 µM | 0% | 43% | > 200 µM | inhibition in vivo at 100 mg/kg [1]: 24.1%; Time [2]: 73.83 s; inhibition in vivo at 100 mg/kg [3]: 48.2%; Time [4]: 111.33 s; inhibition in vivo at 40 mg/kg [5]: 25.6%; inhibition in vivo at 40 mg/kg [7]: 23.5%; inhibition in vivo at 20 mg/kg [9]: 4.7%; ED50 [11]: 33.8 mg/kg; Time [12]: 13.9 s; inhibition in vivo at 40 mg/kg [13]: 12.1%; Time [14]: 76.45 s; Time [15]: 71 s; inhibition in vivo at 100 mg/kg [18]: 48.3%; inhibition in vivo at 20 mg/kg [19]: 10%; inhibition in vivo at 20 mg/kg [20]: 0.02%; Time [21]: 82.83 s
2 | COc1nc2c(c(=O)n(C)c(=O)n2C)n1CCCC(=O)Nc1ccc(C(C)(C)C)cc1 | – | 19.8 µM | – | 13% | 87.5 µM | –
3 | COc1nc2c(c(=O)n(C)c(=O)n2C)n1CCCC(=O)Nc1cccc(Cl)c1 | – | > 200 µM | – | 9% | > 200 µM | –
4 | CCCCOc1nc2c(c(=O)n(C)c(=O)n2C)n1CCCC(=O)Nc1ccc(C(C)CC)cc1 (stereo not given) | – | 20 µM | – | 14% | 110 µM | –
5 | CCCOc1nc2c(c(=O)n(C)c(=O)n2C)n1CCCC(=O)Nc1cc(C(C)(C)C)ccc1O | 1% | 41.1 µM | 3% | 38% | 14.7 µM | –
6 | CCOc1nc2c(c(=O)n(C)c(=O)n2C)n1CCCC(=O)Nc1ccc(C(C)(C)C)cc1 | – | 54.3 µM | – | 0% | 42.5 µM | –
7 | CCCOc1nc2c(c(=O)n(C)c(=O)n2C)n1CCCC(=O)Nc1ccc(C(C)(C)C)cc1 | 5% | 7.76 µM | 5% | 52% | 21.1 µM | –
8 | CCOc1nc2c(c(=O)n(C)c(=O)n2C)n1CC(=O)Nc1ccc(C(C)C)cc1 | – | > 200 µM | – | 20% | > 200 µM | –
9 | CCOc1nc2c(c(=O)n(C)c(=O)n2C)n1CC(=O)Nc1cccc(Cl)c1 | – | > 200 µM | – | 5% | > 200 µM | –
10 | CCOc1nc2c(c(=O)n(C)c(=O)n2C)n1CC(=O)Nc1ccc(Cl)cc1 | – | > 200 µM | – | 7% | > 200 µM | –
11 | CCCOc1nc2c(c(=O)n(C)c(=O)n2C)n1CCCC(=O)Nc1ccc(C(C)C)cc1 | – | 37.6 µM | – | 11% | 17.8 µM | –
12 | COc1nc2c(c(=O)n(C)c(=O)n2C)n1CC(=O)Nc1ccc(C(C)C)cc1 | 13% | > 200 µM | 4% | 39% | > 200 µM | –
